In patent US4894388A, “Glycosidase inhibitors and use thereof” (priority 1988, dated 1990):

Assays:
[1] = biological target: T1, cytosolic (neutral) α-D-mannosidase (Homo sapiens, UniProt Q9NTJ4); assay: Inhibition of cytosolic (neutral) α-D-mannosidase, fluorigenic 4-methylumbelliferyl glycoside substrate; assay type: biochemical; details: for inhibition at 1000 µM: 1 mM inhibitor, 0.5 mM substrate, pH 6.5, mean of 2-4 determinations
T1 construct: Post mortem human liver, which had been stored at -20° C; from tissue; host or cells: post mortem human liver, 37,000 g supernatant; concanavalin A-Sepharose fraction
T1 sequence (Q9NTJ4 1-1040): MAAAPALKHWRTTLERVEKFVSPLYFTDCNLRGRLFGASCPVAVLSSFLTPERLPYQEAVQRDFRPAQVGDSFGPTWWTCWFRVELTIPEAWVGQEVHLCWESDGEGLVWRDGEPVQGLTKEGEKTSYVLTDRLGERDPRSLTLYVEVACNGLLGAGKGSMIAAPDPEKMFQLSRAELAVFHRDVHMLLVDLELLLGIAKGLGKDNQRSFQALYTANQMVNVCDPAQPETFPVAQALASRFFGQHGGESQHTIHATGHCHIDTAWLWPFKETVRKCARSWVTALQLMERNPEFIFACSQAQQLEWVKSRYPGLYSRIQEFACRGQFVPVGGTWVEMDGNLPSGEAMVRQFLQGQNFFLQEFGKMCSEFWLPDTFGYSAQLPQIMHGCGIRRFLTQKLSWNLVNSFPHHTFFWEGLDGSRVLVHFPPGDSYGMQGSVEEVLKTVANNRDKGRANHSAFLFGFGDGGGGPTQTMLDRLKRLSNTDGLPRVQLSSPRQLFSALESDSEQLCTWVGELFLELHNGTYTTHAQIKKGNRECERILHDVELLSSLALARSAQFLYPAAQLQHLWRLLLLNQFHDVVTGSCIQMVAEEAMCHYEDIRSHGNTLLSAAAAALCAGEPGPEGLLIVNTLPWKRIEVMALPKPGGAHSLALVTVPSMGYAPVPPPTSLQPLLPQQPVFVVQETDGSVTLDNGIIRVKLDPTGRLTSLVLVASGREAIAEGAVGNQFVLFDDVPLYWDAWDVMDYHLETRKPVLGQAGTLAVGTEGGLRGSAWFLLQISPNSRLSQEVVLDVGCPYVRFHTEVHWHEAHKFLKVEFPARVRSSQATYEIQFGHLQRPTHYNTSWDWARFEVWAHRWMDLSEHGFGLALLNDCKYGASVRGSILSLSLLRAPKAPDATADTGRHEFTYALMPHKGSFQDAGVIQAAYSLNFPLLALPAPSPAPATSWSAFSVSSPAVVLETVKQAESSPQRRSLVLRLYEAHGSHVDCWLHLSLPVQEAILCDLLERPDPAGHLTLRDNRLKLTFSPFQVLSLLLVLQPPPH
Protocol: (§1) Post mortem human liver, which had been stored at -20° C. until required was homogenized in deionized water (50%, w/v) in a Potter-Elvehjem homogenizer and then centrifuged at 37,000 g for 30 min in an MSE 18 centrifuge. The resultant supernatant was used as the source of enzymic activities.
(§2) The glycosidase activities in an extract of normal human liver were assayed by using the appropriate fluorigenic 4-methylumbelliferyl glycoside substrate (Koch-Light, Haverhill, Suffolk, U.K.) with a concentration of 0.5 mM at the optimal pH of each enzyme [Burditt et al., Clin. Chim. Acta 140, 201-209 (1980)]. Human liver acidic (lysomal) and neutral (cystosolic) α-D-mannosidases were assayed similarly at their pH-optima, of 4.0 and 6.5, respectively, after separation by affinity chromatography on concanavalin A-Sepharose® (Pharmacia Ltd, Milton Keynes, Bucks, U.K.) [Phillips et al., Biochem. J. 153, 579-587 (1976)]. The residual intermediate (Golgi) α-mannosidase II activity in extracts of fibroblasts from a patient with the lysosomal storage disease, mannosidosis, was assayed at pH 5.75 using the synthetic substrate (Burditt et al, Ibid.). The specificity of the inhibitors was determined by assaying the glycosidases in the presence and absence of a 1 mM solution of each compound. The nature of the inhibition and the value of Ki were determined using the Dixon graphical procedure.
Enzymic activities were measured in the presence and absence of 1 mM inhibitor. Inhibition (%) was calculated as the fraction of activity lost in the presence of inhibitor. The values are means of two to four independent determinations.

[2] = system: α-D-mannosidase (multiple forms); assay: Inhibition of multiple forms of α-D-mannosidase; assay type: biochemical; details: human liver
Protocol: as §1, §2

β-D-glucosidase = assay: Inhibition of β-D-glucosidase; assay type: biochemical, human; details: relative to α-D-mannosidase
Protocol: as §1, §2

SMILES	inhibition at 1000 µM [1]	inhibition of neutral cytosolic α-D-mannosidase (in words) ([1]; relative to α-D-mannosidase II)	inhibition of multiple forms of α-D-mannosidase (in words) [2]	inhibition of β-D-glucosidase (in words) (β-D-glucosidase)
CN1C[C@@H](O)[C@@H](O)[C@@H]1[C@@H](O)CO [N-methyl DIA, N-methyl-1,4-dideoxy-1,4-imino-L-allitol]	20%			
OC[C@H](O)[C@@H]1NC[C@@H](O)[C@H]1O [DIA, 1,4-dideoxy-1,4-imino-L-allitol]	61%	to a lesser extent	moderately strong inhibitor	to a lesser extent
OC[C@H](O)[C@H]1[C@H](O)[C@H](O)CN1Cc1ccccc1 [N-benzyl DIA, N-benzyl-1,4-dideoxy-1,4-imino-L-allitol]	4%			
